Experimental data from patent US8404859B2, “Thiazole and thiophene compounds” (Hoffmann-La Roche Inc., priority 2011, dated 2013).

Assays:
sLFA-1/ICAM-1 = sLFA-1/ICAM-1 (Homo sapiens, UniProt P05107+P20701, DEL701-769); assay: sLFA-1/ICAM-1 ELISA; settings: sLFA-1 coated plates, 5dICAM-Fc binding, read-out: LFA/ICAM (IC50)
Description: (§1) sLFA-1/ICAM-1 ELISA and Mac-1/ICAM-1 ELISA
(§2) Plates were coated with either 50 μl/well of 2.0 ug/ml solution of sLFA-1 or Mac-1 receptor in divalent cation buffer (1 mM MnCI2, 0.14M NaCl, 20 mM HEPES pH 7.2) at 4° C. overnight. Two hundred fifty μl of blocking buffer (1% BSA in divalent cation buffer) was added to each well 1 hour at 37° C. Plates were washed 3 times with wash buffer (TBS/0.05% Tween-20/1 mM MnCl2). The compound to be tested was solubilized in DMSO. A series of 1:3 dilutions were performed to achieve a concentration range of 0.45 nM-3 uM. Fifty μl of binding buffer (0.5% BSA in divalent cation buffer)/1% DMSO and 50 μl of the solutions to be tested were added to the appropriate wells and incubated for 1 hour. Fifty μl of 5dICAM-Fc (27 ng/ml) was added to the appropriate wells and 50 μl binding buffer was added to non-specific binding wells and incubated for 2 hours and washed. One hundred μl of 1:4000 HRP-goat anti-huIgG was added to each well and incubated for 1 hour and washed. One hundred μl of 1:1 TMB solution was added to each well and developed for 20 min at room temperature. Color development was stopped by adding 100 μl H3PO4 to each well. Absorbance was measured at 450 nm.

Mac-1/ICAM-1 = Mac-1/ICAM-1 (Homo sapiens, UniProt P05107+P11215); assay: Mac-1/ICAM-1 ELISA; settings: Mac-1 receptor coated plates, 5dICAM-Fc binding
Sequence of Mac-1/ICAM-1 (P05107 23-769, other chains not shown): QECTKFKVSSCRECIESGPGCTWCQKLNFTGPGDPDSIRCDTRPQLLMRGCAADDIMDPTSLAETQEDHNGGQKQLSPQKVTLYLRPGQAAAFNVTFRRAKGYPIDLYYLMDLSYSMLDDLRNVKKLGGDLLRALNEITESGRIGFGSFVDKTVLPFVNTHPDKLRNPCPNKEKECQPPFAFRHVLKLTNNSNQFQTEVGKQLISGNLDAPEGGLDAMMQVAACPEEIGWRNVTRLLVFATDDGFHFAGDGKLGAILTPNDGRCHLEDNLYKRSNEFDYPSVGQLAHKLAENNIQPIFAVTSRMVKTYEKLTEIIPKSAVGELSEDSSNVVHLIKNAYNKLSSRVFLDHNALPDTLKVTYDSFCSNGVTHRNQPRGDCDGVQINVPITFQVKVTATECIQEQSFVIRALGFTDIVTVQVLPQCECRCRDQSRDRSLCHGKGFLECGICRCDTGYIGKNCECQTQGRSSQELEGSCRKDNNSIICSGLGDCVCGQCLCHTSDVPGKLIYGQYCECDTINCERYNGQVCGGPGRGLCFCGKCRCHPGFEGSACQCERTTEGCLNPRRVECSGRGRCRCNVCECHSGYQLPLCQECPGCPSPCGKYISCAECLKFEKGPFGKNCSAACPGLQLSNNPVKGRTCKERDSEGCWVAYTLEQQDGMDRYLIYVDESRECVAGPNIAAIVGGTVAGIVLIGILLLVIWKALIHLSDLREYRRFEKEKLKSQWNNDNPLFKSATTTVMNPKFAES
Description: as §1, §2

Sequence of sLFA-1/ICAM-1 (P20701 26-1090 limits assumed, stated change not applied): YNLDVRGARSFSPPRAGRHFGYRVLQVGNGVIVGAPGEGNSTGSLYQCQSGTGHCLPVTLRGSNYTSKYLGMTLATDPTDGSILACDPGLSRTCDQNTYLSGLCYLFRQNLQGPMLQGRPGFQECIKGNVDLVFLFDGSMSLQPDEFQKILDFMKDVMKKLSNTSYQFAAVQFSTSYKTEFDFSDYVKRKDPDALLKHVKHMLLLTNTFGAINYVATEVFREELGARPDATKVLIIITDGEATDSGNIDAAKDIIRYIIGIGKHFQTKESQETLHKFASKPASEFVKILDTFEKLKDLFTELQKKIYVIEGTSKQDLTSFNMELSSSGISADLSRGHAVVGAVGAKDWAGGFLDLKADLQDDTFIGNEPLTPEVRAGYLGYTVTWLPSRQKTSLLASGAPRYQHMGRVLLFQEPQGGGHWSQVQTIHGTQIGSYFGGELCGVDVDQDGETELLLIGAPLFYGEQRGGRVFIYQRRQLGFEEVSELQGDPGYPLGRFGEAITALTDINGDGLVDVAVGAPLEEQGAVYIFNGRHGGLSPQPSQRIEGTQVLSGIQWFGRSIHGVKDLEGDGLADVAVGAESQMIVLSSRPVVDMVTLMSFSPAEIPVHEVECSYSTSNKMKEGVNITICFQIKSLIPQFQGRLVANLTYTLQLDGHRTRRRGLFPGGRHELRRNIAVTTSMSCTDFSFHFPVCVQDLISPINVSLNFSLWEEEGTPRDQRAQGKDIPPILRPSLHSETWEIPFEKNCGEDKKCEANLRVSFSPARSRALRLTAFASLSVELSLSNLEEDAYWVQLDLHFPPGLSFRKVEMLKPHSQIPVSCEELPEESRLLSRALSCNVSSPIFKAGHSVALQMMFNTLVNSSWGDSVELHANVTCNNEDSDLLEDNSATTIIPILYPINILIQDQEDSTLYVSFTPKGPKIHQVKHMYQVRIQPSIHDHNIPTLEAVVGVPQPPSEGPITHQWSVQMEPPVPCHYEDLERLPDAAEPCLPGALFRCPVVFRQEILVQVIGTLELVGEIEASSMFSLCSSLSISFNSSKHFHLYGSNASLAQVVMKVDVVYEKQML
Sequence of sLFA-1/ICAM-1 (P05107 23-700 limits assumed, stated change not applied): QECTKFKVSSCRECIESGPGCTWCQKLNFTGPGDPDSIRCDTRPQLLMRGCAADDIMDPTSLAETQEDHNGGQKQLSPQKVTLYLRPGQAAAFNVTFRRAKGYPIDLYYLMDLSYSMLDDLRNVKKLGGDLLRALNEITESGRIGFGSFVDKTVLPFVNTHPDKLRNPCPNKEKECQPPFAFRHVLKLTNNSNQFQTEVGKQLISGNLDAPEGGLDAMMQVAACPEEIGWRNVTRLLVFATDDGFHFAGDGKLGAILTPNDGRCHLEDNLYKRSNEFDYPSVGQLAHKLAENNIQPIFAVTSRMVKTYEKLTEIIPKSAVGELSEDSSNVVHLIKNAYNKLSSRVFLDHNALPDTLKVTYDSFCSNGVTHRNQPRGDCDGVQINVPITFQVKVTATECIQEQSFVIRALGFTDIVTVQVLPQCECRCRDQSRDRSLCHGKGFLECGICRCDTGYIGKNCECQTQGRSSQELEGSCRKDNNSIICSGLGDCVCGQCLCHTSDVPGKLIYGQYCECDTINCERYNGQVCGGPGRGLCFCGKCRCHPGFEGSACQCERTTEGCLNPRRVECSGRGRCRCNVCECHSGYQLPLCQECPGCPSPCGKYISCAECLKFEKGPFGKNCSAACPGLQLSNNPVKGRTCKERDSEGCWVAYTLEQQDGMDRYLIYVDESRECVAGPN

IC50 (sLFA-1/ICAM-1) | IC50 (Mac-1/ICAM-1) | Structure (SMILES)
17 nM |  | Cc1nc(NC(=O)Cc2cccc(O)c2)sc1C(=O)N[C@@H](CNC(=O)c1cc(F)cc(F)c1)C(=O)O [Example 1, (S)-3-(3,5-Difluoro-benzoylamino)-2-({2-[2-(3-hydroxy-phenyl)-acetylamino]-4-methyl-thiazole-5-carbonyl}-amino)-propionic acid]
4 nM | 58 nM | Cc1nc(NC(=O)Cc2cccc(O)c2)sc1C(=O)N[C@@H](CNC(=O)c1cccs1)C(=O)O [Example 2, (S)-2-({2-[2-(3-Hydroxy-phenyl)-acetylamino]-4-methyl-thiazole-5-carbonyl}-amino)-3-[(thiophene-2-carbonyl)-amino]-propionic acid]
85 nM | > 3000 nM | O=C(Cc1cccc(O)c1)Nc1ncc(C(=O)N[C@@H](CNC(=O)c2cccs2)C(=O)O)s1 [Example 3, (S)-2-({2-[2-(3-Hydroxy-phenyl)-acetylamino]-thiazole-5-carbonyl}-amino)-3-[(thiophene-2-carbonyl)-amino]-propionic acid]
6 nM |  | Cc1nc(NC(=O)Cc2cccc(O)c2)sc1C(=O)N[C@@H](CNC(=O)c1ccccc1)C(=O)O [Example 4, (S)-3-Benzoylamino-2-([2-[2-(3-hydroxy-phenyl)-acetylamino]-4-methyl-thiazole-5-carbonyl]-amino)-propionic acid]
2 nM | 300 nM | Cc1nc(NC(=O)Cc2cccc(O)c2)sc1C(=O)N[C@@H](CNC(=O)c1cccc(O)c1)C(=O)O [Example 5, (S)-3-(3-Hydroxy-benzoylamino)-2-({2-[2-(3-hydroxy-phenyl)-acetylamino]-4-methyl-thiazole-5-carbonyl}-amino)-propionic acid]
3 nM |  | Cc1nc(NC(=O)Cc2cccc(O)c2)sc1C(=O)N[C@@H](CNC(=O)c1cc(O)cc(O)c1)C(=O)O [Example 6, (S)-3-(3,5-Dihydroxy-benzoylamino)-2-({2-[2-(3-hydroxy-phenyl)-acetylamino]-4-methyl-thiazole-5-carbonyl}-amino)-propionic acid]
5 nM | 30 nM | Cc1nc(NC(=O)Cc2cccc(O)c2)sc1C(=O)N[C@@H](CNC(=O)c1ccsc1)C(=O)O [Example 7, (S)-2-({2-[2-(3-Hydroxy-phenyl)-acetylamino]-4-methyl-thiazole-5-carbonyl}-amino)-3-[(thiophene-3-carbonyl)-amino]-propionic acid]
7 nM | 32 nM | O=C(Cc1cccc(O)c1)Nc1nc(Cl)c(C(=O)N[C@@H](CNC(=O)c2cccs2)C(=O)O)s1 [Example 8, (S)-2-({4-Chloro-2-[2-(3-hydroxy-phenyl)-acetylamino]-thiazole-5-carbonyl}-amino)-3-[(thiophene-2-carbonyl)-amino]-propionic acid]
30 nM | 82 nM | O=C(Cc1cccc(O)c1)Nc1nc(C(F)(F)F)c(C(=O)N[C@@H](CNC(=O)c2cccs2)C(=O)O)s1 [Example 9, (S)-2-([2-[2-(3-Hydroxy-phenyl)-acetylamino]-4-trifluoromethyl-thiazole-5-carbonyl]-amino)-3-[(thiophene-2-carbonyl)-amino]-propionic acid]
44 nM | 20 nM | Cc1nc(NC(=O)CCc2cccc(O)c2)sc1C(=O)N[C@@H](CNC(=O)c1cc(O)cc(O)c1)C(=O)O [Example 10, (S)-3-(3,5-Dihydroxy-benzoylamino)-2-({2-[3-(3-hydroxy-phenyl)-propionylamino]-4-methyl-thiazole-5-carbonyl}-amino)-propionic acid]
90 nM |  | Cc1nc(NC(=O)CCc2cccc(O)c2)sc1C(=O)N[C@@H](CNC(=O)c1cccs1)C(=O)O [Example 11, (S)-2-([2-[3-(3-Hydroxy-phenyl)-propionylamino]-4-methyl-thiazole-5-carbonyl]-amino)-3-[(thiophene-2-carbonyl)-amino]-propionic acid]
13 nM | 27 nM | Cc1nc(NCCc2cccc(O)c2)sc1C(=O)N[C@@H](CNC(=O)c1cc(O)cc(O)c1)C(=O)O [Example 12, (S)-3-(3,5-Dihydroxy-benzoylamino)-2-({2-[2-(3-hydroxy-phenyl)-ethylamino]-4-methyl-thiazole-5-carbonyl}-amino)-propionic acid]
52 nM | > 3000 nM | Cc1nc(OCCCc2cccc(O)c2)sc1C(=O)N[C@@H](CNC(=O)c1cccs1)C(=O)O [Example 13, (S)-2-({2-[3-(3-Hydroxy-phenyl)-propoxy]-4-methyl-thiazole-5-carbonyl}-amino)-3-[(thiophene-2-carbonyl)-amino]-propionic acid]
8 nM | 89 nM | Cc1nc(NC(=O)Cc2cccc3[nH]ncc23)sc1C(=O)N[C@@H](CNC(=O)c1cccs1)C(=O)O [Example 14, (S)-2-{[2-(2-1H-Indazol-4-yl-acetylamino)-4-methyl-thiazole-5-carbonyl]-amino}-3-[(thiophene-2-carbonyl)-amino]-propionic acid]
3 nM | 12 nM | Cc1nc(NC(=O)Cc2cccc3[nH]ncc23)sc1C(=O)N[C@@H](CNC(=O)c1cc(O)cc(O)c1)C(=O)O [Example 15, (S)-3-(3,5-Dihydroxy-benzoylamino)-2-{[2-(2-1H-indazol-4-yl-acetylamino)-4-methyl-thiazole-5-carbonyl}-amino]-propionic acid]
17 nM |  | O=C(Cc1cccc2[nH]ncc12)Nc1nc(C(F)(F)F)c(C(=O)N[C@@H](CNC(=O)c2cccs2)C(=O)O)s1 [Example 16, (S)-2-{[2-(2-1H-Indazol-4-yl-acetylamino)-4-trifluoromethyl-thiazole-5-carbonyl]-amino}-3-[(thiophene-2-carbonyl)-amino]-propionic acid]
27 nM |  | Cc1cc(C(=O)NC(C)c2cccc(O)c2)sc1C(=O)N[C@@H](CNC(=O)c1cccs1)C(=O)O (stereo partly drawn) [Example 37, (S)-2-({5-[1-(3-hydroxy-phenyl)-ethylcarbamoyl]-3-methyl-thiophen-2-carbonyl}-amino)-3-[(thiophene-2-carbonyl)-amino]-propionic acid]
> 3000 nM |  | COc1cc(C(=O)NC[C@H](NC(=O)c2sc(C(=O)NCc3cccc(O)c3)cc2C)C(=O)O)nc(OC)n1 [Example 43, (S)-3-[(2,6-dimethoxy-pyrimidine-4-carbonyl)-amino]-2-{[5-(3-hydroxy-benzylcarbamoyl)-3-methyl-thiophene-2-carbonyl]-amino}-propionic acid]
17 nM |  | Cc1cc(C(=O)NCc2cccc(O)c2)sc1C(=O)N[C@@H](CNC(=O)c1cccc2[nH]ncc12)C(=O)O [Example 44, (S)-2-{[5-(3-hydroxy-benzylcarbamoyl)-3-methyl-thiophene-2-carbonyl]-amino}-3-[(1H-indazole-4-carbonyl)-amino]-propionic acid]
763 nM |  | Cc1cc(C(=O)NCc2cccc(O)c2)sc1C(=O)N[C@@H](CNC(=O)c1cnc(O)cn1)C(=O)O [Example 45, (S)-2-{[5-(3-hydroxy-benzylcarbamoyl)-3-methyl-thiophene-2-carbonyl]-amino}-3-[(5-hydroxy-pyrazine-2-carbonyl)-amino]-propionic acid]
51 nM |  | Cc1cc(C(=O)NCc2cccc(O)c2)sc1C(=O)N[C@@H](CNC(=O)c1cccc2[nH]cnc12)C(=O)O [Example 46, (S)-3-[(1H-benzoimidazole-4-carbonyl)-amino]-2-{[5-(3-hydroxy-benzylcarbamoyl)-3-methyl-thiophene-2-carbonyl]-amino}-propionic acid]
289 nM |  | Cc1cc(C(=O)NCc2cccc(O)c2)sc1C(=O)N[C@@H](CNC(=O)c1cccc(C(=O)O)c1)C(=O)O [Example 47, (S)-3-[(benzoic acid-3-carbonyl)-amino]-2-{[5-(3-hydroxy-benzylcarbamoyl)-3-methyl-thiophene-2-carbonyl]-amino}-propionic acid]
85 nM |  | Cc1cc(C(=O)NCCc2cccc(O)c2)sc1C(=O)N[C@@H](CNC(=O)c1cccs1)C(=O)O [Example 48, (S)-2-({5-[2-(3-hydroxy-phenyl)ethyl-carbamoyl]-3-methyl-thiophen-2-carbonyl}-amino)-3-[(thiophene-2-carbonyl)-amino]-propionic acid]
1550 nM |  | O=C(NC[C@H](NC(=O)c1sc(C(=O)NCc2cccc(O)c2)cc1-c1ccccc1)C(=O)O)c1cccs1 [Example 53, (S)-2-{[5-(3-Hydroxy-benzylcarbamoyl)-3-phenyl-thiophene-2-carbonyl]-amino}-3-[(thiophene-2-carbonyl)-amino]-propionic acid]
3 nM |  | N#Cc1cc(C(=O)NCc2cccc(O)c2)sc1C(=O)N[C@@H](CNC(=O)c1cccs1)C(=O)O [Example 65, (S)-2-{[3-Cyano-5-(3-hydroxy-benzylcarbamoyl)-thiophene-2-carbonyl]-amino}-3-[(thiophene-2-carbonyl)-amino]-propionic acid]
41 nM |  | N#Cc1cc(C(=O)NCc2cccc3[nH]ncc23)sc1C(=O)N[C@@H](CNC(=O)c1cc(O)cc(O)c1)C(=O)O [Example 66, (S)-2-({3-Cyano-5-[(1H-indazol-4-ylmethyl)-carbamoyl]-thiophene-2-carbonyl}-amino)-3-(3,5-dihydroxy-benzoylamino)-propionic acid]
